# Measurements: patent US20220411471A1, “CELL-PERMEABLE CYCLIC PEPTIDES AND USES THEREOF” (Unnatural Products Inc., priority 2019, published 2022)
# Non-standard residues stand in square brackets, D forms with d. Residues, ends and D or L forms follow the SMILES beside them. ξ: configuration not given here. Ala(4-thiazolyl) = N[C@@H](Cc1cscn1)C(=O)O; NMePhe(4-F) = CN[C@@H](Cc1ccc(F)cc1)C(=O)O; Phe(4-Cl) = N[C@@H](Cc1ccc(Cl)cc1)C(=O)O; Phe(4-F) = N[C@@H](Cc1ccc(F)cc1)C(=O)O; NMeThr(3ξ) = CN[C@H](C(=O)O)C(C)O; NMeF = CN[C@@H](Cc1ccccc1)C(=O)O; hSer = N[C@@H](CCO)C(=O)O; NMeA = CN[C@@H](C)C(=O)O; dNMeA = CN[C@H](C)C(=O)O; Nme = COCCNCC(=O)O
# Tested on: MOLM-13 cells
# Test: Cellular fluorescence assay (resazurin, 72 hours)
# Type: cell-based
# Experimental: MOLM-13 cells were grown in suspension in T75 flasks in RPMI medium with 10% fetal bovine serum (FBS) at 37° C. with 5% CO2. 40 μL of MOLM-13 cells were plated into columns 1-22 of black, clear bottom, 384 well plates at a density of 1,500 cells per well in PRMI with 10% FBS. Columns 23 and 24 were filled with 40 μL of media as a positive control. 100 nL of compounds dissolved in DMSO were pin transferred into columns 3-22 of the 384 well plate. Columns 1 and 2 served as negative control wells. Plates were incubated for 72 hours at 37° C. with 5% CO2. After incubation, the cells were given 10 μL of 2 mM Resazurin in RPMI with 10% FBS and incubated for 3 hours. The fluorescence intensity was read on a Molecular Devices SpectraMax i3x plate reader (Excitation wavelength=535 nm, Emission wavelength=585 nm).
row,SMILES,IC50 [nM]
1,"COCC[C@@H]1NC(=O)[C@H]2CCCN2C(=O)[C@H](Cc2ccc(F)cc2)N(C)C(=O)[C@H](Cc2ccc(Cl)cc2)NC(=O)[C@H](C(C)O)N(C)C(=O)[C@H](Cc2ccc(F)cc2)NC(=O)CN(CCOC)C(=O)[C@@H](C)N(C)C(=O)[C@H](Cc2cscn2)NC(=O)[C@H](C)N(C)C1=O (some centres unmarked) [Compound 45, COCC[C@@H]1NC(=O)[C@H]2CCCN2C(=O)[C@H](Cc2ccc(F)cc2)N(C)C(=O)[C@H](Cc2ccc(Cl)cc2)NC(=O)[C@H]([C@@@H](C)O)N(C)C(=O)[C@H](Cc2ccc(F)cc2)NC(=O)CN(CCOC)C(=O)[C@@H](C)N(C)C(=O)[C@H](Cc2cscn2)NC(=O)[C@H](C)N(C)C1=O] (cyclo([Ala(4-thiazolyl)][dNMeA][Nme][Phe(4-F)][NMeThr(3ξ)][Phe(4-Cl)][NMePhe(4-F)][dP][hSer](Me)[NMeA]))",50 to 100
2,"COCC[C@@H]1NC(=O)[C@H]2CCCN2C(=O)[C@H](Cc2ccccc2)N(C)C(=O)[C@H](Cc2ccc(Cl)cc2)NC(=O)[C@H]([C@@H](C)O)NC(=O)[C@H](Cc2ccc(F)cc2)NC(=O)CN(CCOC)C(=O)[C@@H](C)N(C)C(=O)[C@H](Cc2cscn2)NC(=O)[C@H](C)N(C)C1=O [Compound 39, COCC[C@@H]1NC(=O)[C@H]2CCCN2C(=O)[C@H](CC2=CC=CC=C2)N(C)C(=O)[C@H](CC2=CC=C(Cl)C=C2)NC(=O)[C@@H](NC(=O)[C@H](CC2=CC=C(F)C=C2)NC(=O)CN(CCOC)C(=O)[C@@H](C)N(C)C(=O)[C@H](CC2=CSC=N2)NC(=O)[C@H](C)N(C)C1=O)C(C)O] (cyclo([hSer](Me)[NMeA][Ala(4-thiazolyl)][dNMeA][Nme][Phe(4-F)]T[Phe(4-Cl)][NMeF][dP]))",100 to 150
